Assay: photoluminescence quantum yield (fraction); solvent given as SMILES

## CN1/C(=C\C=C\C2=C3C=CC(c4ccccc4)=[N+]3[B-](F)(F)n3c2ccc3-c2ccccc2)C(C)(C)c2ccccc21
In CC#N
  photoluminescence quantum yield: 0.1

## N#Cc1c(-n2c3ccccc3c3ccccc32)cccc1-n1c2ccccc2c2ccccc21
In Cc1ccccc1
  photoluminescence quantum yield: 0.13
In O=P(c1ccccc1)(c1ccccc1)c1ccccc1Oc1ccccc1P(=O)(c1ccccc1)c1ccccc1
  photoluminescence quantum yield: 0.28

## C[Si]1(C)O[Si](C)(C)c2cc3c(-c4ccccc4)c4cc([N+](=O)[O-])ccc4nc3cc21
In ClCCl
  photoluminescence quantum yield: 0.3

## F[Si-](F)(c1c2ccccc2cc2ccccc12)(c1c2ccccc2cc2ccccc12)c1c2ccccc2cc2ccccc12
In C1CCOC1
  photoluminescence quantum yield: 0.64

## Brc1ccc(/C=C/c2ccncn2)cc1
In ClCCl
  photoluminescence quantum yield: 0.01

## CCOC(=O)COc1ccc(/C=C/c2c(CC)c(C)c3n2[B-](F)(F)[N+]2=C(c4[nH]c(C)c(CC)c4C)c4ccccc4C2=C3C)cc1
In C1CCOC1
  photoluminescence quantum yield: 0.28
In CC#N
  photoluminescence quantum yield: 0.09
In CCCCCC
  photoluminescence quantum yield: 0.74
In CO
  photoluminescence quantum yield: 0.2
In Cc1ccccc1
  photoluminescence quantum yield: 0.71
In ClCCl
  photoluminescence quantum yield: 0.68

## COc1ccc(-c2csc(/C(C#N)=C/c3ccc(Cl)cc3)n2)cc1
In CC#N
  photoluminescence quantum yield: 0.048

## C(#Cc1cccc2ccccc12)c1ncc(-c2ccccc2)o1
In ClCCl
  photoluminescence quantum yield: 0.28

## CC1[C@@H]2[C@@H]1[C@]1(c3ccccc3)N=NC2(c2ccccc2)C2C3C=CC(C3)C21 (some centres not stated)
In CC#N
  photoluminescence quantum yield: 0.018

## COc1ccc([C@@H]2C[C@](O)(c3ccccn3)C[C@](O)(c3ccccn3)[C@H]2C(=O)c2ccc(N(c3ccccc3)c3ccccc3)cc2)cc1
In C1CCOC1
  photoluminescence quantum yield: 0.5
In CC#N
  photoluminescence quantum yield: 0.02
In CCO
  photoluminescence quantum yield: 0.01
In CCOC(C)=O
  photoluminescence quantum yield: 0.42
In CN(C)C=O
  photoluminescence quantum yield: 0.03
In ClCCl
  photoluminescence quantum yield: 0.26
In c1ccccc1
  photoluminescence quantum yield: 0.93

## CN(C)c1ccc(C2=C3C=C(c4ccc(C=C(C#N)C#N)cc4)S[C@]34c3ccccc3[C@H]2c2ccccc24)cc1
In ClCCl
  photoluminescence quantum yield: 0.01

## Cc1ccc(/C=C/c2nc3ccccc3s2)cc1
In C1CCCCC1
  photoluminescence quantum yield: 0.02
In CO
  photoluminescence quantum yield: 0.003

## c1ccc(-c2nc(-c3ccccc3)nc(-c3ccc(-n4c5ccccc5c5cc6c7ccccc7n7c8ccccc8c(c54)c67)cc3)n2)cc1
In O=P(c1ccccc1)(c1ccccc1)c1ccc2oc3ccc(P(=O)(c4ccccc4)c4ccccc4)cc3c2c1
  photoluminescence quantum yield: 0.68

## CCCCC(CC)COc1ccc2nc(-c3ccc(-c4ccccc4)s3)sc2c1 (configuration not stated)
In ClCCl
  photoluminescence quantum yield: 0.58

## COCCOCCOCCOCC(COCCOCCOCCOC)Oc1cc(/C=C/c2ccc(/C=C(\C#N)c3ccncc3)cc2)c(OC(COCCOCCOCCOC)COCCOCCOCCOC)cc1/C=C/c1ccc(/C=C(\C#N)c2ccncc2)cc1
In ClCCl
  photoluminescence quantum yield: 0.45

## CCc1ccc(-c2nc(-c3ccc(-n4c5ccccc5c5ccccc54)cc3)cc(-c3ccc(-n4c5ccccc5c5ccccc54)cc3)n2)cc1
In C1CCOC1
  photoluminescence quantum yield: 0.6
In CN(C)C=O
  photoluminescence quantum yield: 0.74
In Cc1ccccc1
  photoluminescence quantum yield: 0.71
In ClC(Cl)Cl
  photoluminescence quantum yield: 0.58

## C1=Cc2ccc(N(c3ccccc3)c3ccccc3)cc2Cc2cc(N(c3ccccc3)c3ccccc3)ccc21
In ClCCl
  photoluminescence quantum yield: 0.99

## O=P1(c2ccccc2)c2cccc3ccc4ccc1n4c23 (configuration not stated)
In ClCCl
  photoluminescence quantum yield: 0.36

## CC[N+]1(CC)CN2C(=N1)C(C(=O)O)=Cc1cc(OC)c(OC)cc12
In O
  photoluminescence quantum yield: 0.859

## c1ccc(-c2nc(-c3ccc(N(c4ccccc4)c4ccccc4)cc3)n3ccccc23)cc1
In ClCCl
  photoluminescence quantum yield: 0.127

## CCOc1ccc2c(-c3nc(-c4cccc(C)c4)no3)cc(=O)oc2c1
In CCO
  photoluminescence quantum yield: 0.68
In ClC(Cl)Cl
  photoluminescence quantum yield: 0.23

## CNc1ncc2nc(C(=O)OC)n(Cc3ccccc3)c2n1
In C1COCCO1
  photoluminescence quantum yield: 0.65
In CC#N
  photoluminescence quantum yield: 0.66
In CO
  photoluminescence quantum yield: 0.61
In ClCCl
  photoluminescence quantum yield: 0.65

## COc1ccc2c(-c3nc(-c4cccc(C)c4)no3)cc(=O)oc2c1
In CCO
  photoluminescence quantum yield: 0.52
In ClC(Cl)Cl
  photoluminescence quantum yield: 0.12

## c1ccc2c(-c3c4ccccc4c(-c4ccc(-c5ccc(-n6c7ccccc7c7ccccc76)cc5)cc4)c4ccccc34)cccc2c1
In ClCCl
  photoluminescence quantum yield: 0.7

## COc1ccc2cc(-c3cc(-c4ccccc4)c4n3[B-](F)(F)[N+]3=C5C=NC=CN5[B-](F)(F)[N+]3=C4)ccc2c1
In ClCCl
  photoluminescence quantum yield: 0.43

## CN(C)c1ccc2nc(-c3ccc(C(=O)OC(C)(C)C)cc3)sc2c1
In C1CCCCC1
  photoluminescence quantum yield: 0.84
In CC#N
  photoluminescence quantum yield: 0.81
In CC(C)O
  photoluminescence quantum yield: 0.84
In CO
  photoluminescence quantum yield: 0.72
In CS(C)=O
  photoluminescence quantum yield: 0.91
In ClC(Cl)Cl
  photoluminescence quantum yield: 0.87
In c1ccccc1
  photoluminescence quantum yield: 0.85

## c1ccc2c(c1)-c1sc3ccccc3c1C21c2ccccc2-c2sc3ccccc3c21
In ClCCl
  photoluminescence quantum yield: 0.06

## COC(=O)/C(C#N)=c1\s/c(=c2/s/c(=C(/C#N)C(=O)OC)c3cc(-c4ccc(C(F)(F)F)cc4)sc23)c2sc(-c3ccc(C(F)(F)F)cc3)cc12
In Cc1ccccc1
  photoluminescence quantum yield: 0.212

## CCN(CC)c1ccc2cc(-c3ccc(-c4ccc(-c5cc6ccc(N(CC)CC)cc6oc5=O)cc4)cc3)c(=O)oc2c1
In ClCCl
  photoluminescence quantum yield: 0.75

## Cc1ccc(N(c2ccc(C)cc2)c2ccc(-c3ccc(C=C(C#N)C#N)o3)cc2)cc1
In ClC(Cl)Cl
  photoluminescence quantum yield: 0.1

## c1ccc2c(c1)OP1(=NP3(=NP(Oc4ccc5ccc6cccc7ccc4c5c67)(Oc4ccc5ccc6cccc7ccc4c5c67)=N1)Oc1ccccc1-c1ccccc1O3)Oc1ccccc1-2
In ClCCl
  photoluminescence quantum yield: 0.82

## COc1ccc(-n2c3c4ccccc4nc(-c4ccc(C#N)cc4)c3c3c2c2c(-c4ccc(C#N)cc4)nc4ccccc4c2n3-c2ccc(OC)cc2)cc1
In ClC(Cl)Cl
  photoluminescence quantum yield: 0.074

## CN(C)c1ccc(C(=O)Nc2ccc(F)cc2)cc1
In C1CCCCC1
  photoluminescence quantum yield: 0.0011
In C1CCOC1
  photoluminescence quantum yield: 0.0053
In CC#N
  photoluminescence quantum yield: 0.0104
In CCOCC
  photoluminescence quantum yield: 0.0034

## O=C(c1ccc(N2c3ccccc3Oc3ccccc32)cc1)c1cccc(C(=O)c2ccc(N3c4ccccc4Oc4ccccc43)cc2)c1
In Cc1ccccc1
  photoluminescence quantum yield: 0.36
In c1cc(-c2cccc(-n3c4ccccc4c4ccccc43)c2)cc(-n2c3ccccc3c3ccccc32)c1
  photoluminescence quantum yield: 0.71

## c1ccc2c(c1)oc1nc3oc4ccc(-n5c6ccccc6c6ccccc65)cc4c3cc12
In ClC(Cl)Cl
  photoluminescence quantum yield: 0.074

## F[B-]1(F)n2c(c(-c3ccccc3)c(-c3ccccc3)c2-c2ccccc2)C=C2C(c3ccccc3)=C(c3ccccc3)C(c3ccccc3)=[N+]21
In C1CCOC1
  photoluminescence quantum yield: 0.96

## C(=C\c1ccc(Nc2ccccc2)cc1)/c1ccccc1
In CC#N
  photoluminescence quantum yield: 0.3
In CCCCCC
  photoluminescence quantum yield: 0.51

## CC1(C)c2ccccc2N(c2ccccc2)c2ccc(-c3ccc(-c4ccc5c(c4)C(C)(C)c4ccccc4N5c4ccccc4)c4nsnc34)cc21
In c1ccc2c(c1)c1ccccc1n2-c1ccc(-c2ccc(-n3c4ccccc4c4ccccc43)cc2)cc1
  photoluminescence quantum yield: 0.92

## Nc1ccc(/C=C/c2ccccc2)cc1
In CC#N
  photoluminescence quantum yield: 0.03
In CCCCCC
  photoluminescence quantum yield: 0.03

## C1=Cc2nc1c(-c1cccs1)c1ccc([nH]1)c(-c1cccs1)c1nc(c(-c3cccs3)c3ccc([nH]3)c2-c2cccs2)C=C1
In CN(C)C=O
  photoluminescence quantum yield: 0.012
In ClCCl
  photoluminescence quantum yield: 0.0046

## CCCn1c2cccc3oc4cccc5oc6cccc1c6[c+](c45)c32
In CC#N
  photoluminescence quantum yield: 0.49
In CO
  photoluminescence quantum yield: 0.54
In ClCCl
  photoluminescence quantum yield: 0.59
In OCC(O)CO
  photoluminescence quantum yield: 0.47

## N#Cc1cc(C#N)c(-c2ccc(N(c3ccccc3)c3ccccc3)cc2)cc1-c1ccc(N(c2ccccc2)c2ccccc2)cc1
In C1CCCCC1
  photoluminescence quantum yield: 0.75

## Clc1ccc(/C=C(\c2ccccc2)c2nc3ccccc3o2)cc1
In CO
  photoluminescence quantum yield: 0.002

## COc1ccc(C(=Cc2ccc(C=O)cc2)c2ccc(OC)cc2)cc1
In C1CCOC1
  photoluminescence quantum yield: 0.066

## CCC1(CC)c2cc(N(c3ccccc3)c3ccccc3)ccc2-c2c1c1c(c3c2C(CC)(CC)c2cc(N(c4ccccc4)c4ccccc4)ccc2-3)C(CC)(CC)c2cc(N(c3ccccc3)c3ccccc3)ccc2-1
In C1CCOC1
  photoluminescence quantum yield: 0.27
